In data set [1] the test system is Multidrug-Resistant (MDR) Pneumococcal Infections. Kind of data set: In-vivo antimicrobial test, systemic infection model (mouse septicemia), Table 22. Details: species or system Swiss male and female mice. As to conditions: Streptococcus pneumoniae, po, oral dosing 1 hour and 5 hours post-infection, survival on day 7, strain resistant to β-lactams, macrolides and fluoroquinolones, read-out: ED50 p.o., MDR S. pneumoniae 718. As to the method:
The in vivo efficacy was studied through mouse septicemia model of infection in Swiss male and female mice (4 weeks old, 20+2 g weight) using 6 animals in each group. Infective organisms were inoculated intraperitonially. Compound were administered by oral route 1 hour and 5 hours post-infection. […] Appropriate comparators were included in the study.

The subject of data set [2] is J 744 (mouse macrophage). Kind of data set: Cytotoxicity test (Alamar blue), J 744 cells, Table 23. In kind it is cell-based. As to conditions: 3 hrs drug exposure, further 96 hrs incubation. As to the method: Compounds were evaluated for their cytotoxic potential against two celllines viz. […] Cytotoxic drugs inhibit this reaction resulting into blue coloured well. Minimum drug concentration inhibiting Alamar blue color change i.e. resulting into blue coloured wells for a given drug is considered cytotoxic concentration.
(Alamar Blue is a resazurin reagent that responds to reducing activity.)

Data set [3] concerns Fluoroquinolone Sensitive Strains. Put plainly: In-vitro antimicrobial test (MIC, two-fold serial agar dilution, NCCLS), Table 17. It counts as cell-based. (In general: In agar dilution, organisms are placed on agar that contains the substance at set levels.)
Data set [4] has as its system Fluoroquinolone-Resistant Strains. Put plainly: In-vitro antimicrobial test (MIC, two-fold serial agar dilution, NCCLS), Table 18. It counts as cell-based. As to the method: (§1) The test method was in accordance with the standard NCCLS protocol (Methods for Dilution Antimicrobial Susceptibility Tests for Bacteria that grow Aerobicially, Approved Standards, M7-A5, Fifth Edition, January 2000).
(§2) The antibacterial activities (minimum inhibitory concentration: MIC, […]) were determined by using the two-fold serial agar dilution method recommended by NCCLS. The media used for preculture and main culture were Tryptic Soya broth (Difco) and Mueller Hinton medium (Difco), respectively. The Mueller Hinton agar was supplemented with 5% sheep blood for streptococci. Overnight cultures were diluted with buffered saline (pH 7.2) to the final cell density of 5×10^6-10^7 CFU/ml, and each bacterial suspension was applied with a replicator (Denley's multipoint inoculator, UK) onto a series of Mueller-Hinton agar plates containing antibacterial agents at various concentrations. Final inoculum was approximately 10^4 CFU/spot. The plates were incubated for 18 hrs at 37° C. The MIC was defined as the lowest concentration of an antibacterial agent that inhibits the development of visible microbial growth on agar.

The test system of data set [5] is Clinical Isolate MRSA 5076 with Mutations in DNA Gyrase and Topoisomerase IV as well as bearing an Efflux Pump. Kind of data set: microbe, parasite or virus in culture. In kind it is cell-based. As to conditions: for MIC: Staphylococcus aureus, ATCC 25293 / MRSA, read-out: MICs, S. aureus (sensitive) ATCC 25293. As to the method: as §1, §2
In data set [6] the test system is V79 (Chinese Hamster Lung). Kind of data set: Cytotoxicity test (Alamar blue), V79 cells, Table 23. It counts as cell-based. As to conditions: 3 hrs drug exposure, further 96 hrs incubation. As to the method: Compounds were evaluated for their cytotoxic potential against two […] viz. […] Cells were grown for 3-4days in a culture flask using D-MEM (Dulbecco's Modified Eagle. […] Freshly grown cells were distributed in microtiter plates at a cell density of 10^5-10^6 cells/well and allowed to […] form monolayer by incubating the microtiter plate at […] for 24 hrs. […] Following 3 hrs. of drug exposure, cell were washed with D-MEM and incubated further for 96 hrs. Cytotoxic effects of drugs were monitored through daily microscopic observation and by ascertaining the metabolic status through redox indicator Alamar blue. Healthy actively metabolising cells bring about colour change of Alamar blue from blue to pink within an overnight incubation. Cytotoxic drugs inhibit this reaction resulting into blue coloured well. Minimum drug concentration inhibiting Alamar blue color change i.e. resulting into blue coloured wells for a given drug is considered cytotoxic concentration.

The test system of data set [7] is Trovafloxacin-Resistant and Vancomycin-Resistant Enterococci. Put plainly: In-vitro antimicrobial test (MIC, two-fold serial agar dilution, NCCLS), Table 19. It counts as cell-based.
From the text: The comparative antimicrobial activity of representative compounds, of the invention and reference compounds against various sensitive and resistant microorganisms is given in Tables 17 to 20. The test method was in accordance with the standard NCCLS protocol (Methods for Dilution Antimicrobial Susceptibility Tests for Bacteria that grow Aerobicially, Approved Standards, M7-A5, Fifth Edition, January 2000).
as §2

Data set [8] is described as follows: Phototoxicity (oral dose, UVA exposure, ear erythema and oedema). It counts as in vivo. To be noted: Swiss Albino mice, UVA 4 hours for 4 consecutive days. As to the method: The stock solutions for different doses were prepared freshly on the day of experimentation. Appropriate concentration of each dose was chosen to give a constant dosage volume of 0.3-0.4 ml/20 g body weight of mouse. The treated mice were exposed to UVA light source immediately after dosing for 4 hours and for 4 consecutive days. The mean light intensity in the UVA chamber was adjusted to 0.9-1.2 mW/cm^2. […] A phototoxic dose is one which causes ear erythema and oeadema.

From patent US6878713B2, “Generation triple-targeting, chiral, broad-spectrum antimicrobial 7-substituted piperidino-quinolone carboxylic acid derivatives, their preparation, compositions and use as medicaments” (Wockhardt Limited, priority 2001, dated 2005) come the findings set out here.

In brackets after ≈: the same amount, converted by molar mass. Where two headings read alike, the source gives them in different places. A value given as a limit tells only on which side of the number the result lay.

As a reminder, the ED50 is the dose at which the effect has come halfway, by size or by number of responders. The term melting point denotes the temperature, or range, at which the solid turns liquid. As for `Cc1c(N2CCC(N)C(C)(C)C2)c(F)cc2c(=O)c(C(=O)O)cn(C3CC3)c12.Cl` (single isomer, unassigned; (-)) [Compound 110, (−)-1-Cyclopropyl-6-fluoro-1,4-dihydro-8-methyl-7-(4-amino-3,3-dimethyl-1-piperidinyl)-4-oxo-quinoline-3-carboxylic acid hydrochloride], the melting point came to 300 °C. Further, in data set [1], the 50% effective dose (ED50) was 20 mg/kg. Also, the “Cytotoxic concentration, J 744 Macrophage” value in data set [2] (hydrochloride) is 1000 µg/mL. The same molecule had an MICs in data set [3] (E. coli ATCC 25922, hydrochloride) of 0.025 µg/mL. The molecule also registered an MICs in [3] (E. faecalis ATCC 29212, hydrochloride) of 0.05 µg/mL. Besides, in [3] (MSSA ATCC 25923), the MICs worked out at 0.025 µg/mL. Besides, in data set [3] (S. pneumoniae ATCC 49619, hydrochloride), the MICs amounted to 0.025 µg/mL. This molecule also displayed an MICs in data set [4] (Cipro^R S. sanguis 941, hydrochloride) of 1.56 µg/mL. Besides, in [5], the MIC came out at 0.05 µg/mL. In addition, the “Cytotoxic concentration, V 79 CHL” value in data set [6] (hydrochloride) came to 250 µg/mL.

Turning to `Cc1c(N2CCC(O)C(C)(C)C2)c(F)cc2c(=O)c(C(=O)O)cn(C3CC3)c12` (racemic) [Compound 95, (±)-1-Cyclopropyl-6-fluoro-8-methyl-7-(4-hydroxy-3,3-dimethyl-1-piperidinyl)-1,4-dihydro-4-oxo-quinoline-3-carboxylic acid], the MIC in [7] (Staphylococcus epidermidis, trovafloxacin-resistant methicillin-resistant S. epidermidis (MRSE) 110, 18 hrs at 37° C, read-out: MICs, Trova-Resist MRSE 110) came to 0.4 µg/mL (≈ 1.03 µM); in data set [7] (vancomycin-resistant Enterococcus faecium (VRE) 336, 18 hrs at 37° C, read-out: MICs, VRE 336), 3.12 µg/mL (≈ 8.03 µM); in [3] (Enterococcus faecalis, ATCC29212, E. faecalis ATCC 29212) it was 0.05 µg/mL (≈ 0.129 µM); in data set [3] (Escherichia coli, ATCC25922, E. coli ATCC 25922), 0.2 µg/mL (≈ 0.515 µM); in data set [3] (Pseudomonas aeruginosa, P. aeruginosa 27853) it was 3.12 µg/mL (≈ 8.03 µM); in data set [3] (S. sanguis ATCC 10556 (Viridans Streptococci group)), 0.025 µg/mL (≈ 0.0644 µM). In addition, the MIC in data set [3] (Staphylococcus aureus, ATCC 25923 / MSSA, MSSA ATCC 25923) turned out to be 0.003 µg/mL (≈ 0.00772 µM); in [3] (Streptococcus pneumoniae, ATCC49619, S. pneumoniae ATCC 49619), 0.025 µg/mL (≈ 0.0644 µM); in data set [4] (Cipro^R S. sanguis 941) it was 0.4 µg/mL (≈ 1.03 µM); in data set [4] (Staphylococcus aureus, MRSA, MRSA 032) it was 0.2 µg/mL (≈ 0.515 µM); in [4] (Streptococcus mitis, Cipro^R S. mitis 938), 0.4 µg/mL (≈ 1.03 µM); in data set [4] (Streptococcus pneumoniae, FQ^R S. pneumoniae 718), 0.8 µg/mL (≈ 2.06 µM). Also, the MIC in data set [5] was determined as 0.003 µg/mL (≈ 0.00772 µM). Moreover, the “Cytotoxic concentration, J 744 Macrophage” value in data set [2] was greater than 1000 µg/mL. Moreover, the “MICs, MRSA 5076 + efflux inhibitor reserpine” value in data set [5] (MRSA 5076 with efflux inhibitor reserpine) stood at 0.2 µg/mL. In addition, the “Cytotoxic concentration, V 79 CHL” value in [6] was greater than 1000 µg/mL.

Take `C[C@@H]1CN(c2c(F)c(N)c3c(=O)c(C(=O)O)cn(C4CC4)c3c2F)C[C@H](C)N1` [sparfloxacin]: the phototoxic dose in data set [8] stood at 25 mg/kg.
